Assays:
[1] = target: KRAS G12D (Homo sapiens, UniProt P01116, G12D); assay: GDP-GTP exchange assay, KRAS G12D; format: biochemical; conditions: bodipy-loaded KRAS G12D 2.5 nM, GppNHp 500 uM, SOS1 150 nM; 4 hours pre-incubation, 2 hours incubation; read-out: G12D_exchange
Procedure: Inhibitors were serially diluted in DMSO and a volume of 0.1 μL was transferred to the wells of a black low volume 384-well plate. […] The exchange was initiated by the addition of a 5 μL/well volume containing 1 mM GppNHp and 300 nM SOS1 in assay buffer. […] The reaction plates were incubated at ambient temperature for 2 hours, a time estimated for complete GDP-GTP exchange in the absence of inhibitor.
Either GraphPad prism or Genedata Screener SmartFit was used to analyze the data. The IC50 values were derived by fitting the data to a four parameter logistic equation producing a sigmoidal dose-response curve with a variable Hill coefficient.
“NA” indicates IC50 not available.

[2] = target: KRAS G12V mutant (Homo sapiens, UniProt P01116, G12V); assay: GDP-GTP exchange assay, KRAS G12V; format: biochemical; conditions: bodipy loaded KRAS G12V 2.5 nM; 3 hours incubation after adding GppNHp-SOS1 mixture; read-out: G12V_exchange
[3] = system: Caco-2 cells; assay: Caco2 assay (permeability, A-B); format: in vitro ADME; conditions: Papp absorptive direction (A-B), test compound 50 μM, 120 minutes at 37° C.
Procedure: Caco-2 cells are grown at 37° C. in an atmosphere of 5% CO2 in DMEM growth medium supplemented with 10% (v/v) fetal bovine serum, 1% (v/v) nonessential amino acids, penicillin (100 U/mL), and streptomycin (100 μg/mL). Confluent cell monolayers are subcultured every 7 days or 4 days for Caco-2 by treatment with 0.05% trypsin containing […]. Caco-2 cells are seeded in 96-well Transwell plates. The seeding density for Caco-2 cells is 14,000 cells/well. DMEM growth medium is replaced every other day after seeding. Cell monolayers are used for transport assays between 22 and 25 days for Caco-2 cells.
Cell culture medium is removed and replaced with HBSS. To measure the TEER, the HBSS is added into the donor compartment (apical side) and receiver compartment (basolateral side). The TEER is measured by using a REMS Autosampler to ensure the integrity of the cell monolayers. Caco-2 cell monolayers with TEER values ≥300 Ω·cm^2 are used for transport experiments. To determine the Papp in the absorptive direction (A-B), solution of test compound (50 μM) in HBSS is added to the donor compartment (apical side), while HBSS solution with 4% BSA is added to the receiver compartment (basolateral side). The apical volume was 0.075 mL, and the basolateral volume is 0.25 mL. The incubation period is 120 minutes at 37° C. in an atmosphere of 5% CO2. At the end of the incubation period, samples from the donor and receiver sides are removed and an equal volume of acetonitrile is added for protein precipitation. The supernatants are collected after centrifugation (3000 rpm, Allegra X-14R Centrifuge from Beckman Coulter, Indianapolis, IN) for LCMS analysis. The permeability value is determined according to the equation:
[formula] • where the flux rate (F, mass/time) is calculated from the slope of cumulative amounts of compound of interest on the receiver side, SA is the surface area of the cell membrane, VD is the donor volume, and MD is the initial amount of the solution in the donor chamber.
The symbol “+” indicates a Caco-2 value of […], “++” indicates a Caco-2 value of >0.5 but ≤1; and “+++” indicates a Caco-2 value of >1. “NA” indicates IC50 not available.

Sequence of KRAS G12D (P01116 1-188 isoform P01116-2 G12D): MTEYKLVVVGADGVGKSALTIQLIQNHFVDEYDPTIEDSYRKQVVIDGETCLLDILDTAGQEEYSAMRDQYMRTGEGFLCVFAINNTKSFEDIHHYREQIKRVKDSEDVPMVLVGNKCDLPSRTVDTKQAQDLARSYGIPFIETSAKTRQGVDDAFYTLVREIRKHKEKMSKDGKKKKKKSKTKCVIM
Sequence of KRAS G12V mutant (P01116 1-188 isoform P01116-2 G12V): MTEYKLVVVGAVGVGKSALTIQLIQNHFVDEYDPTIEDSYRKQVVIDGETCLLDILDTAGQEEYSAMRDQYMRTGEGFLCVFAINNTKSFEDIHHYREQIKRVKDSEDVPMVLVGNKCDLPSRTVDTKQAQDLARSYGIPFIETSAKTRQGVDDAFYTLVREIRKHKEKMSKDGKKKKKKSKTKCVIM

IC50 [1] | IC50 [2] | Caco-2 ([3]; Table 3) | Caco-2 ([3]; Table 4) | Structure (SMILES)
< 0.1 µM | < 0.1 µM | +++ (a Caco-2 value of >1) |  | CC(=O)N1CC[C@H](n2ncc3c(O[C@@H](C)[C@@H]4CCCN4C)nc4c(F)c(-c5cccc6cccc(C#N)c56)c(C#N)cc4c32)C[C@H]1CC#N (single isomer, unassigned) [Example 7]
< 0.1 µM | < 0.1 µM | + (a Caco-2 value of 50.5) |  | Cc1cc2c(nc(O[C@@H](C)[C@@H]3CCCN3C)c3cc(CN4CCOCC4=O)n([C@H]4[C@H]5CN[C@@H]4C5)c32)c(F)c1-c1cccc2cccc(C#N)c12 (single isomer, unassigned) [Example 8]
< 0.1 µM | < 0.1 µM | + (a Caco-2 value of 50.5) |  | C[C@H](Oc1nc2c(F)c(-c3csc4ccccc34)c(CCC#N)cc2c2c1cc(CN1CCCC1=O)n2[C@H]1[C@H]2CN[C@@H]1C2)[C@@H]1CCCN1C (single isomer, unassigned) [Example 9]
< 0.1 µM | < 0.1 µM | + (a Caco-2 value of 50.5) |  | C[C@@H](CN(C)C)Oc1nc2c(F)c(-c3cccc4ccc(F)cc34)c(CCC#N)cc2c2c1cc(CN1CCCC1=O)n2[C@H]1[C@H]2CN[C@@H]1C2 (single isomer, unassigned) [Example 10]
< 0.1 µM | < 0.1 µM | + (a Caco-2 value of 50.5) |  | Cc1cc2c(O[C@@H](C)[C@@H]3CCCN3C)nc3c(F)c(-c4cccc5cccc(C#N)c45)c(CCC#N)cc3c2n1[C@H]1[C@H]2CN[C@@H]1C2 (single isomer, unassigned) [Example 11]
< 0.1 µM | < 0.1 µM | + (a Caco-2 value of 50.5) |  | Cc1cc2c(O[C@@H](C)[C@@H]3CCCN3C)nc3c(F)c(-c4cc(O)cc(Cl)c4Cl)c(CCC#N)cc3c2n1[C@H]1[C@H]2CN[C@@H]1C2 (single isomer, unassigned) [Example 12]
< 0.1 µM | < 0.1 µM |  |  | CN1CC(F)(COc2nc3c(F)c(-c4cc(O)cc5ccccc45)c(CCC#N)cc3c3c2cc(CCC(=O)N(C)C)n3[C@H]2[C@H]3CN[C@@H]2C3)C1 (single isomer, unassigned) [Example 13]
< 0.1 µM | < 0.1 µM | ++ (a Caco-2 value of >0.5 but ≤1) |  | Cc1cnc(-c2nc3c(F)c(-c4cc(O)cc5ccccc45)c(CCC#N)cc3c3c2cc(C)n3[C@H]2[C@H]3CN[C@@H]2C3)cn1 (single isomer, unassigned) [Example 14]
< 0.1 µM | < 0.1 µM | + (a Caco-2 value of 50.5) |  | C[C@H](Oc1nc2c(F)c(-c3cccc4ccc(F)c(F)c34)c(CCC#N)cc2c2c1cc(CCC(=O)N1CCC1)n2[C@H]1[C@H]2CN[C@@H]1C2)[C@@H]1CCCN1C (single isomer, unassigned) [Example 20]
< 0.1 µM | < 0.1 µM | + (a Caco-2 value of 50.5) |  | C[C@H](Oc1nc2c(F)c(-c3cccc4cc(F)c(F)cc34)c(CCC#N)cc2c2c1cc(CCC(=O)N1CCC1)n2[C@H]1[C@H]2CN[C@@H]1C2)[C@@H]1CCCN1C (single isomer, unassigned) [Example 21]
< 0.1 µM | < 0.1 µM | + (a Caco-2 value of 50.5) |  | Cc1cc2c(O[C@@H](C)[C@@H]3CCCN3C)nc3c(F)c(-c4cc(O)cc5ccc(F)cc45)c(CCC#N)cc3c2n1[C@H]1[C@H]2CN[C@@H]1C2 (single isomer, unassigned) [Example 22]
< 0.1 µM | < 0.1 µM |  |  | CC(=O)N1CC[C@H](n2ncc3c(O[C@@H](C)[C@@H]4CCCN4C)nc4c(F)c(-c5nccc6cccc(C#N)c56)c(Cl)cc4c32)C[C@H]1CC#N (single isomer, unassigned) [Example 23a]
< 0.1 µM | < 0.1 µM |  |  | CC(=O)N1CC[C@H](n2ccc3c(O[C@@H](C)[C@@H]4CCCN4C)nc4c(F)c(-c5cccc6cccc(C#N)c56)c(Cl)cc4c32)C[C@H]1CC#N (single isomer, unassigned) [Example 24a]
< 0.1 µM | < 0.1 µM |  | + (a Caco-2 value of 50.5) | Cc1nc2c(F)c(-c3cccc(Cl)c3Cl)c(CCC#N)cc2c2c1cc(C1CCc3cccc(=O)n31)n2[C@H]1[C@H]2CN[C@@H]1C2 (single isomer, unassigned) [Example 31]
< 0.1 µM | < 0.1 µM |  | ++ (a Caco-2 value of >0.5 but ≤1) | CC(=O)N1CCC[C@@H]1c1cc2c(-c3ccnc(C)c3)nc3c(F)c(-c4cccc5c4C(C#N)CCC5)c(C)cc3c2n1[C@H]1[C@H]2CN[C@@H]1C2 (single isomer, unassigned) [Example 35]
< 0.1 µM | < 0.1 µM |  | +++ (a Caco-2 value of >1) | CNC(=O)c1ccc(-c2nc3c(F)c(-c4cccc(Cl)c4C)c(CCC#N)cc3c3c2cc([C@@H](C)n2ccncc2=O)n3[C@H]2[C@H]3CN[C@@H]2C3)cn1 (single isomer, unassigned) [Example 36]
< 0.1 µM | < 0.1 µM |  | +++ (a Caco-2 value of >1) | Cc1cnc(-c2nc3c(F)c(-c4cccc(Cl)c4C)c(CCC#N)cc3c3c2cc([C@@H](C)n2ccncc2=O)n3[C@H]2[C@H]3CN[C@@H]2C3)cn1 (single isomer, unassigned) [Example 38]
< 0.1 µM | < 0.1 µM |  | +++ (a Caco-2 value of >1) | CNC(=O)c1ccc(-c2nc3c(F)c(-c4cccc(Cl)c4Cl)c(CCC#N)cc3c3c2cc([C@@H](C)n2ccncc2=O)n3[C@H]2[C@H]3CN[C@@H]2C3)cc1F (single isomer, unassigned) [Example 54b]
< 0.1 µM | < 0.1 µM | ++ (a Caco-2 value of >0.5 but ≤1) |  | Cc1cc2c(-n3cncn3)nc3c(F)c(-c4cc(O)cc5ccc(Cl)cc45)c(CCC#N)cc3c2n1[C@H]1[C@H]2CN[C@@H]1C2 [Example 1, 3-(1-((1R,4R,5S)-2-Azabicyclo[2.1.1]hexan-5-yl)-7-(7-chloro-3-hydroxynaphthalen-1-yl)-6-fluoro-2-methyl-4-(1H-1,2,4-triazol-1-yl)-1H-pyrrolo[3,2-c]quinolin-8-yl)propanenitrile]
 |  | ++ (a Caco-2 value of >0.5 but ≤1) |  | CC(=O)N1CC[C@H](n2ncc3c(O[C@@H](C)[C@@H]4CCCN4C)nc4c(F)c(-c5nccc6cccc(C#N)c56)c(Cl)cc4c32)C[C@H]1CC#N [Example 23, 1-(1-((2S,4S)-1-Acetyl-2-(cyanomethyl)piperidin-4-yl)-8-chloro-6-fluoro-4-((S)-1-((S)-1-methylpyrrolidin-2-yl)ethoxy)-1H-pyrazolo[4,3-c]quinolin-7-yl)isoquinoline-8-carbonitrile]
 |  | + (a Caco-2 value of 50.5) |  | CC(=O)N1CC[C@H](n2ccc3c(O[C@@H](C)[C@@H]4CCCN4C)nc4c(F)c(-c5cccc6cccc(C#N)c56)c(Cl)cc4c32)C[C@H]1CC#N [Example 24, 8-(1-((2S,4S)-1-acetyl-2-(cyanomethyl)piperidin-4-yl)-8-chloro-6-fluoro-4-((S)-1-((S)-1-methylpyrrolidin-2-yl)ethoxy)-1H-pyrrolo[3,2-c]quinolin-7-yl)-1-naphthonitrile]
 |  |  | +++ (a Caco-2 value of >1) | Cc1cnc(-c2nc3c(F)c(-c4cccc(Cl)c4C)c(CCC#N)cc3c3c2cc([C@@H](C)N2CCOCC2=O)n3[C@H]2[C@H]3CN[C@@H]2C3)cn1 [Example 44, 3-(1-((1R,4R,5S)-2-Azabicyclo[2.1.1]hexan-5-yl)-7-(3-chloro-2-methylphenyl)-6-fluoro-4-(5-methylpyrazin-2-yl)-2-((R)-1-(3-oxomorpholino)ethyl)-1H-pyrrolo[3,2-c]quinolin-8-yl)propanenitrile]
